Assay results taken from article PMC7900953, “Location of a single histidine within peptide carriers increases mRNA delivery” (The Journal of Gene Medicine, 2020).

Experiments:
[1] = system: MDA‐MB‐231 cells; assay: In vitro uptake of HK polyplexes by fluorescence microscopy; assay type: cell-based; conditions: HK:mRNA 4:1; for Aggregates of polyplexes seen by fluorescence microscopy: 4 hours after transfection
Protocol: With the mRNA labeled with Cy5, HK polyplexes at a ratio of 4:1 (HK:mRNA) were prepared as described for in vitro transfection. The labeled polyplexes were incubated with MDA‐MB‐231 cells for four hours in Opti‐MEM. After the cells were washed with phosphate‐buffered saline (PBS) (Quality Biologicals, Gaithersburg, MD, USA), they were incubated for 30 minutes with LysoTracker Green DND‐26 (Cell Signaling Technology, Inc., Danvers, MA, USA), a dye that stains acidic endosomes and lysosomes. Then after the cells were washed twice with PBS and once with 1% Triton‐X, they were fixed (4% formalin/1% glutaraldehyde) and the nuclei were stained with chromatin dye Hoechst 33342 (Invitrogen, Carlsbad, CA, USA). Images were obtained with a Nikon TE2000‐S (Nikon, Tokyo, Japan) with a mercury lamp light source usng the filter sets: Ex‐357(20)/Em‐460(60) (Hoechst); Ex‐480(30)/Em‐535(45) (Lysotracker green DND‐26); Ex‐620(50)/Em‐690(50) (Cy5‐labeled‐mRNA). Red/green ratios were measured on 20 intracellular acidic vesicles (one per cell) using ImageJ, version 1.52. ^42
FIGURE 5 Fluorescence images of different mRNA polyplexes within acidic vesicles of MDA‐MB‐231 cells. (A) Four hours after transfection with labeled mRNA by H3K(+H)4b (upper) or H3K4b (lower) carriers, intracellular acidic vesicles were stained with Lysotracker green. The cells were then fixed, and the nuclei were stained with Hoesch 33342 dye. Images were obtained with a Nikon TE2000‐S using a mercury lamp light source and the filter sets delineated in the Materials and methods (green, acidic vesicles; red, cynanine 5‐labeled mRNA; blue, nuclei labeled with Hoescht dye). […] Arrows indicate the irregularly shaped mRNA aggregates frequently observed with H3K4b carrier. (B) Analysis of the amount of HK (H3K4b or H3K(+H)4b) polyplexes within acidic endosomal vesicles of MDA‐MB‐231 cells. Images of HK polyplexes labeled with cyanine5 (red emission) were imported into endosomal vesicles (green emission). The red/green ratios were measured on 20 intracellular acidic vesicles using ImageJ. […]

[2] = system: MDA‐MB‐231 cells; assay: In vitro uptake of HK polyplexes by flow cytometry; assay type: cell-based; conditions: HK:mRNA 4:1, 1, 2 and 4 hours, DMEM/10% FBS
Protocol: Intracellular uptake of polymer–mRNA complex in MDA‐MB‐231 was measured by flow cytometry. Twenty‐four hours before the treatment, cells were plated in a 24‐well plate. The polymer‐mRNA polyplex was formed in Opti‐MEM at a ratio of 4:1 at room temperature for 30 minutes. After the cell culture medium was replaced with DMEM/10% FBS, H3K(+H)4b‐ or H3K4b‐mRNA polyplexes (cyanine 5'‐labeled mRNA; Trilink Biotechnologies, Inc.) were added to the cells. At several time points (1, 2 and 4 hours), transfected cells were harvested, fixed with 4% formalin/1% glutaraldehyde, and resuspended in PBS buffer for analysis. The results from the fluorescently labeled MDA‐MB‐231 cells were then acquired using Cytoflex (Beckman Coulter) and analyzed using CytExpert, version 2.3.0.84 (Beckman Coulter) on the flow cytometer.
Figure S2. Uptake of cyanine 5-labeled mRNA uptake into MDA-MB-231 cells with different peptide carriers. The percentages of cells containing labeled mRNA 1, 2, 4 hours after transfection with H3K(+H)4b (upper panel) or with H3K4b (lower panel).

[3] = system: MDA‐MB‐231 cells; assay: mRNA transfection with HK lipopolyplexes (HK peptide + DOTAP liposomes); assay type: cell-based; conditions: HK 4 μg, mRNA 1 μg, DOTAP 1 μg; luciferase 24 h
Protocol: Transfection with HK lipopolyplexes was carried out in a manner similar to that described above, with a few exceptions. In brief, the HK peptide (4 μg) in Opti‐MEM was mixed initially with mRNA (1 μg) for 30 minutes. This was followed by adding the DOTAP cationic liposome (1,2‐dioleoyl‐3‐trimethyl ammonium‐propane; 1 μg; Roche, Basel, Switzerland) for an additional 30 minutes. The Opti‐MEM mixture (50 μl) was then added dropwise to the cells.
FIGURE 8 Comparison of mRNA transfection with DOTAP and several HK peptides. To form lipopolyplexes, the HK peptides (4 μg) in Opti‐MEM were initially mixed with mRNA (1 μg) for 30 minutes. DOTAP liposomes (1 μg) were then added, gently mixed and allowed to stand for an additional 30 min. Polyplexes were prepared as described previously. These complexes in Opti‐MEM (50 μl) were then added to the cells and, 24 hours later, the luciferase activity was measured. *p < 0.05; **p < 0.01; ***p < 0.001
Figure S4. Transfection of mRNA (1 µg) with HK peptides (4 µg) and/or DOTAP liposomes (1 µg). Cells were transfected with mRNA lipoplexes, polyplexes, or lipopolyplexes as described in the Material and Methods section, and twenty-four h later, the luciferase activity was measured. ***, P<0.001; ****, P<0.0001

[4] = system: trypsin; assay: Stability of HK polyplexes to enzymatic degradation; assay type: in vitro ADME; conditions: trypsin (0.025%) 30 or 60 min; HK (0.5, 1, 4 µg):mRNA (1 µg); release of mRNA on 1% agarose gel
Protocol: After preparation of the H3K4b‐ or H3k(+H)4b‐mRNA polyplexes [w:w; HK (0.5, 1 or 4 μg):mRNA (1 μg)], these polyplexes were incubated with trypsin (0.025%) for 30 or 60 minutes. The HK polyplexes were then loaded on a 1% agarose gel and electrophoresis was carried out at 75 V for 30 minutes in TAE buffer. The gel was stained in a TAE buffer containing ethidium bromide (1 μg/ml) for 10 minutes.
[picture] Figure S3. Stability of HK polyplexes to enzymatic degradation. After preparation of the H3K4b or H3k(+H)4b mRNA polyplexes (wt:wt; HK (0.5, 1, 4 µg):mRNA (1 µg)), these polyplexes were incubated with trypsin (0.025%) for 30 or 60 min. The HK polyplexes were then loaded on a 1% agarose gel and electrophoresis was carried out at 75 V for 30 min in TAE buffer. The gel was stained in a TAE buffer containing ethidium bromide (1 µg/ml) for 10 min.

[5] = system: cytokines; conditions: in vitro and in vivo; cited from earlier work

Row | Substance | Aggregates of polyplexes seen by fluorescence microscopy [1] | Localization of polyplexes within acidic endosomal vesicles ([1]; 4 hours in Opti‐MEM, red/green ratios on 20 vesicles, p < 0.001) | Uptake of Cy5-labelled mRNA polyplexes into cells [2] | mRNA carrier effectiveness compared with DOTAP liposomes [3] | Stability of mRNA polyplex to trypsin [4] | Cytokine induction by siRNA polyplex [5]
1 | R = KHHHKHHHKHHHHKHHHK [H3K(+H)4b, four‐branched analogue of H3K4b with one extra histidine in the second ‐HHHK‐ motif] | not observed | localized within the acidic endosomal vesicles significantly more than H3K4b polyplexes | imported into the cells more than H3K4b polyplexes | significantly better carriers of mRNA than the DOTAP liposomes | reduced stability to trypsin at the 1:2 and 1:1 ratios compared to the H3k(+H)4b polyplex | 
2 | R = KHHHKHHHKHHHKHHHK [H3K4b, four‐branched histidine‐lysine peptide with four ‐HHHK‐ motifs in each branch] | likely extracellular aggregates |  |  |  |  | induced cytokines to a significantly greater degree in vitro and in vivo than the H3K(+H)4b‐siRNA polyplexes
